Read-outs that look alike come from different tables or passages of the source.
Legend:
Thoracic aortic rings = experiment: Alternative thoracic aortic rings assay (Example 19b; resting tension as 100% inhibition); set-up: species or system rat; details: Rattus norvegicus, Table 10B; for inhibition at 1 µM: read-out: Percent Relaxation at 1 μM; for inhibition at 3 µM: read-out: Percent Relaxation at 3 μM; for EC50: read-out: Aortic Ring EC50; for inhibition at 10 µM: read-out: Percent Relaxation at 10 μM
Protocol: Thoracic aortic rings were dissected from anesthetized (isoflurane) male Sprague-Dawley rats weighing 275-299 g. Tissues were immediately transferred to ice-cold Krebs-Henseleit solution, which had been aerated with 95% O2 and 5% CO2 for 30 minutes. Following removal of connective tissue, aortic sections were cut into 4 rings (˜2 mm each) and suspended on 2 L-shaped hooks, with one hook fixed at the bottom of the tissue bath (Schuler Organ Bath, Harvard Apparatus) and the other connected to a force transducer (F30 Force Transducer, Harvard Apparatus). Baths contained Krebs Henseleit solution (10 mL) heated to 37° C. and aerated with 95% O2 and 5% CO2. Rings were brought to an initial tension of 0.3-0.5 g and gradually raised to a resting tension of 1.0 g over 60 minutes. Rings were rinsed with Krebs Henseleit solution (heated to 37° C. and aerated with 95% O2 and 5% CO2) at 15 minute intervals until a stable baseline was obtained. Rings were considered to be stable after a resting tension of 1.0 g was maintained (for approximately 10 minutes) without need for adjustment. Rings were then contracted with 100 ng/mL phenylephrine by adding 100 uL of a 10 μg/mL phenylephrine stock solution. Tissues achieving a stable contraction were then treated in a cumulative, dose dependent manner with test compounds prepared in dimethylsulfoxide (DMSO). In some cases, tissues were rinsed three times over a 5 minute period with Krebs-Heinseleit's solution (heated to 37° C. and aerated with 95% O2 and 5% CO2), allowed to stabilize at baseline, and then used for characterization of other test articles or DMSO effects. All data were collected using the HSE-ACAD software provided by Harvard Apparatus. […] EC50 values were calculated from concentration-response curves generated with GraphPad Prism Software.

[1] = molecular target: T1, soluble guanylate cyclase (sGC) (Homo sapiens (Human), UniProt Q02108+Q02153); experiment: sGC-HEK-cGMP assay run with SNP incubation (HEK WC assay); format: cell-based; details: for HEK WC Assay (fold increase at 30 μM in the presence of 10 μM SNP): compound at 30 μM; for EC50: in the presence of 10 uM SNP
How it was run: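 EC50 values derive from concentration-response curves of intracellular cGMP in HEK293 cells, which express sGC endogenously. Compound and sodium nitroprusside were co-incubated 10 min at 37 °C after a 15-min 0.5 mM IBMX step, with 0.1 M HCl lysis and 1% DMSO vehicle.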

[2] = molecular target: T1, soluble guanylate cyclase (sGC); experiment: sGC-HEK-cGMP assay run in the absence of SNP (HEK WC assay); format: cell-based; details: compound at 30 μM, absence of SNP
How it was run: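 Intracellular cGMP was measured by LC/MS, using a standard curve, in HEK293 cells treated with compound for 10 min at 37° C after a 15 min 0.5 mM IBMX pretreatment, with no SNP present. Lysis and quench used 0.1 M HCl. EC50 values came from concentration-response fits.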

[3] = read-out: HEK WC Assay (% Emax at 10 μM with 10 uM SNP)
[4] = read-out: HEK WC Assay (% Emax at 30 μM with 10 uM SNP)
[5] = read-out: HEK WC Assay (% Emax at 1 μM with 10 uM SNP)

T1 sequence (Q02153 whole entry): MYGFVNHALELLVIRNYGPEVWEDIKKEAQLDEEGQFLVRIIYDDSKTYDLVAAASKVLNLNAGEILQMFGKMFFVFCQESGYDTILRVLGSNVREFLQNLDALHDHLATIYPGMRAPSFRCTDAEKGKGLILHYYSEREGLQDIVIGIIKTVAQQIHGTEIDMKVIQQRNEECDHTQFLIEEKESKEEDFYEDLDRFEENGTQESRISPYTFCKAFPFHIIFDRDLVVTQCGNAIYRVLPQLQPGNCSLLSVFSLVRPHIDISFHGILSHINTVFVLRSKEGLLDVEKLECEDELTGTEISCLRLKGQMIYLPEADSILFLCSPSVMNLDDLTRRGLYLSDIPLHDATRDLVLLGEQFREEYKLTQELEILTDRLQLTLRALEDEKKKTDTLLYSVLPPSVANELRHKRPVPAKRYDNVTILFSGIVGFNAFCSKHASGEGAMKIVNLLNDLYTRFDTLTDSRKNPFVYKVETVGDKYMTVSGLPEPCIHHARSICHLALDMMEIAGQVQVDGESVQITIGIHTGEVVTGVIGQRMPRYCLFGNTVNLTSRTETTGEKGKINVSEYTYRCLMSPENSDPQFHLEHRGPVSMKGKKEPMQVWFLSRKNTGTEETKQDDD
T1 sequence (Q02108 whole entry): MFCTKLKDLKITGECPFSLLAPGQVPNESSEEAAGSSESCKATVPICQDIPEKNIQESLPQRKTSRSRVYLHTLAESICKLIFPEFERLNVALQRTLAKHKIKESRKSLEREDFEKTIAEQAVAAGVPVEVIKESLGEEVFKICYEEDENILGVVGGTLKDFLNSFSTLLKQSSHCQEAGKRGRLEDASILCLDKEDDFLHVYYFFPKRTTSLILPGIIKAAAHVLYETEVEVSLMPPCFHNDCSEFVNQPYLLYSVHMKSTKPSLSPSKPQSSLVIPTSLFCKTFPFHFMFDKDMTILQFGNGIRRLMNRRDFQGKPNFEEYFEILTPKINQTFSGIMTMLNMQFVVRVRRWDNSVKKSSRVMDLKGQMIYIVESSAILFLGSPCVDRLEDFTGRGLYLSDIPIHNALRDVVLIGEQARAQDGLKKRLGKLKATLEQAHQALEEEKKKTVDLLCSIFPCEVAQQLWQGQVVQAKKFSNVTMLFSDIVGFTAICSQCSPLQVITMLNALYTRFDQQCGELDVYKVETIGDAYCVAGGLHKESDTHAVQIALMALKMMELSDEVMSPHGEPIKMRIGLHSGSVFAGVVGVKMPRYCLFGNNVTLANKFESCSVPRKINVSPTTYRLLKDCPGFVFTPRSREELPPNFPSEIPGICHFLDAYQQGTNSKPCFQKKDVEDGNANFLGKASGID

SMILES | inhibition at 1 µM (Thoracic aortic rings) [%] | inhibition at 3 µM (Thoracic aortic rings) [%] | EC50 (Thoracic aortic rings) [µM] | HEK WC Assay (fold increase at 30 μM in the presence of 10 μM SNP) [1] | EC50 [1] [µM] | Emax [1, 3] [%] | Emax [1, 4] [%] | HEK WC Assay (fold increase at 30 μM in the absence of SNP) [2] | inhibition at 10 µM (Thoracic aortic rings) [%] | Emax [1, 5] [%]
Nc1nc(-c2cc(-c3ccon3)n(Cc3ccccc3F)n2)ncc1NC(=O)c1ccccn1 [Compound I-162] | 100 to 120 | > 120 | < 2 | G (G = 30 to <40 fold increase) | < 20 | 80 to 100 | 60 to 80 | E (E = 10 to <20 fold increase) | – | –
CC(C)C(=O)Nc1cnc(-c2cc(-c3ccon3)n(Cc3ccccc3F)n2)nc1N [Compound I-165] | 60 to 80 | 80 to 100 | < 2 | F (F = 20 to <30 fold increase) | < 20 | 80 to 100 | 100 to 120 | D (D = 5 to <10 fold increase) | 100 to 120 | 40 to 60
COc1ccccc1C(=O)Nc1cnc(-c2cc(-c3ccon3)n(Cc3ccccc3F)n2)nc1N [Compound I-166] | 40 to 60 | 80 to 100 | < 2 | G (G = 30 to <40 fold increase) | < 20 | 80 to 100 | 100 to 120 | D (D = 5 to <10 fold increase) | 100 to 120 | 60 to 80
Nc1nc(-c2cc(-c3ccon3)n(Cc3ccccc3F)n2)ncc1NC(=O)c1ccc(F)cc1 [Compound I-168] | 60 to 80 | 100 to 120 | < 2 | G (G = 30 to <40 fold increase) | < 20 | 100 to 120 | 100 to 120 | E (E = 10 to <20 fold increase) | 100 to 120 | 100 to 120
Nc1nc(-c2cc(-c3ccon3)n(Cc3ccccc3F)n2)ncc1N1CCCC1=O [Compound I-169] | 40 to 60 | 80 to 100 | < 2 | D (D = 5 to <10 fold increase) | < 20 | 40 to 60 | 60 to 80 | C (C = 2 to <5 fold increase) | – | 20 to 40
Nc1nc(-c2cc(-c3ccon3)n(Cc3ccccc3F)n2)ncc1NC(=O)c1ccccc1F [Compound I-172] | 80 to 100 | 100 to 120 | < 2 | E (E = 10 to <20 fold increase) | < 20 | 60 to 80 | 80 to 100 | E (E = 10 to <20 fold increase) | 100 to 120 | 80 to 100
COc1cccc(C(=O)Nc2cnc(-c3cc(-c4ccon4)n(Cc4ccccc4F)n3)nc2N)c1 [Compound I-174] | 80 to 100 | 80 to 100 | < 2 | F (F = 20 to <30 fold increase) | < 20 | 80 to 100 | 100 to 120 | E (E = 10 to <20 fold increase) | – | 60 to 80
Nc1nc(-c2cc(-c3ccon3)n(Cc3ccccc3F)n2)ncc1NC(=O)c1ccncc1 [Compound I-176] | 80 to 100 | 100 to 120 | < 2 | E (E = 10 to <20 fold increase) | < 20 | 60 to 80 | 60 to 80 | E (E = 10 to <20 fold increase) | – | 20 to 40
COCC(=O)Nc1cnc(-c2cc(-c3ccon3)n(Cc3ccccc3F)n2)nc1N [Compound I-177] | 80 to 100 | 80 to 100 | < 2 | E (E = 10 to <20 fold increase) | < 20 | 80 to 100 | 80 to 100 | D (D = 5 to <10 fold increase) | – | 40 to 60
Nc1nc(-c2cc(-c3ccon3)n(Cc3ccccc3F)n2)ncc1Nc1nccs1 [Compound I-178] | 60 to 80 | 100 to 120 | < 2 | E (E = 10 to <20 fold increase) | < 20 | 80 to 100 | 60 to 80 | E (E = 10 to <20 fold increase) | 100 to 120 | 40 to 60
Cc1ccccc1C(=O)Nc1cnc(-c2cc(-c3ccon3)n(Cc3ccccc3F)n2)nc1N [Compound I-184] | 80 to 100 | 100 to 120 | < 2 | E (E = 10 to <20 fold increase) | < 20 | 100 to 120 | 80 to 100 | E (E = 10 to <20 fold increase) | – | 60 to 80
Nc1nc(-c2cc(-c3ccon3)n(Cc3ccccc3F)n2)ncc1NC(=O)c1ccccc1Cl [Compound I-185] | 60 to 80 | 100 to 120 | < 2 | E (E = 10 to <20 fold increase) | < 20 | 80 to 100 | 100 to 120 | E (E = 10 to <20 fold increase) | 100 to 120 | 60 to 80
Nc1nc(-c2cc(-c3ncco3)n(Cc3ccccc3F)n2)ncc1NC(=O)c1ccccc1 [Compound I-186] | 60 to 80 | 80 to 100 | < 2 | F (F = 20 to <30 fold increase) | < 20 | 60 to 80 | 80 to 100 | D (D = 5 to <10 fold increase) | 100 to 120 | 60 to 80
Nc1nc(-c2cc(-c3ccon3)n(Cc3ccccc3F)n2)ncc1NC(=O)c1cnco1 [Compound I-188] | 80 to 100 | 100 to 120 | < 2 | F (F = 20 to <30 fold increase) | < 20 | 60 to 80 | 60 to 80 | E (E = 10 to <20 fold increase) | 100 to 120 | 40 to 60
CS(=O)(=O)c1cnc(-c2cc(-c3ccon3)n(Cc3ccccc3F)n2)nc1O [Compound I-196] | 60 to 80 | 80 to 100 | < 2 | E (E = 10 to <20 fold increase) | < 20 | 60 to 80 | 80 to 100 | C (C = 2 to <5 fold increase) | 80 to 100 | 20 to 40
CC1(C(=O)Nc2cnc(-c3cc(-c4ccon4)n(Cc4ccccc4F)n3)nc2N)CC1 [Compound I-206] | 20 to 40 | 60 to 80 | < 2 | F (F = 20 to <30 fold increase) | < 20 | 100 to 120 | 100 to 120 | E (E = 10 to <20 fold increase) | 80 to 100 | 100 to 120
Oc1nc(-c2cc(-c3ccon3)n(Cc3ccccc3F)n2)ncc1C(F)(F)F [Compound I-216] | 40 to 60 | 80 to 100 | < 2 | E (E = 10 to <20 fold increase) | < 20 | 40 to 60 | 40 to 60 | C (C = 2 to <5 fold increase) | 100 to 120 | 20 to 40
